From patent publication US12694522B2, “Systems and methods of correcting batch effect in biological images” (The University of Hong Kong, priority 2022, dated 2026)
pIC50: −log10 of the molar value.

Test system: H2170 cells
Test: Drug treatment response of lung cancer cell line H2170 (IC50 concentration level of Table 1)
Assay type: cell-based
Settings: Homo sapiens, NCI-H2170; LUSC cell line H2170; concentration level annotated IC50* in Table 1; 24 hours treatment; read-out: IC50 (half-maximal inhibitory concentration of drug)
Procedure: Morphological profiling is emerging as a promising technique in drug screening; however, the presence of batch effects poses a significant challenge. In this context, the efficacy of the CytoMAD approach is evaluated using label-free drug response assays conducted on LUSC (H2170) cells treated with docetaxel, afatinib, and gemcitabine at various concentrations across two distinct batches. This comprises 18 distinct drug treatment conditions, encompassing five concentration levels and one negative control. During the CytoMAD training process, only batch information and drug types are provided, withholding specific drug concentration data. This allows for the evaluation of the model's self-supervised capability to capture morphological changes across concentrations.
Comparative analysis of phenotypic distributions across different drug treatments (representing different colored violins) showcases preserved patterns before and after the implementation of CytoMAD, confirming its capacity to retain cellular information. To further verify the cellular phenotypic preservation capacity of CytoMAD model, treatment response experiment is conducted with lung cancer cell line H2170. In this experiment, H2170 are treated with drugs of different mechanism of action (MoA) (i.e. Docetaxel as microtubule stabilizing agent, Afatinib as tyrosine kinase inhibitor in targeted therapy and Gemcitabine as antimetabolite), each with 5 concentration levels and a negative control with dimethyl sulfoxide (DMSO) for 24 hours as listed in Table 1. They are imaged using multi-ATOM for single-cell BF and QPI images on 6 days, forming 2 batches with ~100,000 cells per drug. Basically, this dataset consists of 2 batches of data, with each batch containing 3 different drug treatments and each treatment comprising 6 different concentration conditions.

| pIC50 | SMILES |
| --- | --- |
| 8.42 | CC(=O)O[C@@]12CO[C@@H]1C[C@H](O)[C@@]1(C)C(=O)[C@H](O)C3=C(C)[C@@H](OC(=O)[C@H](O)[C@@H](NC(=O)OC(C)(C)C)c4ccccc4)C[C@@](O)([C@@H](OC(=O)c4ccccc4)[C@H]21)C3(C)C [Docetaxel] |
| 7.72 | CN(C)C/C=C/C(=O)Nc1cc2c(Nc3ccc(F)c(Cl)c3)ncnc2cc1O[C@H]1CCOC1 [Afatinib] |
| 8.12 | Nc1ccn([C@@H]2O[C@H](CO)[C@@H](O)C2(F)F)c(=O)n1 [Gemcitabine] |
